# Data: patent US11708348B2, “Protease inhibitors for treatment of coronavirus infections” (The Scripps Research Institute, priority 2021, dated 2023)
# System: SARS-CoV-2 strain USA-WA1/2020
# Experiment: microbe, parasite or virus in culture
# Assay type: cell-based
# Settings: HeLa-ACE2 cells, SARS-CoV-2 infection, 24 h; class symbols; read-out: EC50, uM (Hela)
row,SMILES,EC50
1,"COc1cccc2[nH]c(C(=O)N[C@@H](CC(C)C)C(=O)N[C@@H](C[C@@H]3CCNC3=O)C(=O)COC(=O)c3c(Cl)cccc3Cl)cc12 [Compound 8, (S)-3-((S)-2-(4-methoxy-1H-indole-2-carboxamido)-4-methylpentanamido)-2-oxo-4-((S)-2-oxopyrrolidin-3-yl)butyl 2,6-dichlorobenzoate]",0.05 to 0.2 µM

# Same assay, conditions: Severe acute respiratory syndrome coronavirus 2, HeLa-ACE2, 24 h, HeLa-ACE2 cells, SARS-CoV-2 infection, 24 h; cells given as a bound; read-out: EC50, uM (Hela)
row,SMILES,EC50
1,"COc1cccc2[nH]c(C(=O)N[C@@H](CC(C)C)C(=O)N[C@@H](C[C@@H]3CCNC3=O)C(=O)COC(C(F)F)C(F)F)cc12 [Compound 178, 4-methoxy-N-((S)-4-methyl-1-oxo-1-(((S)-3-oxo-1-((S)-2-oxopyrrolidin-3-yl)-4-((1,1,3,3-tetrafluoropropan-2-yl)oxy)butan-2-yl)amino)pentan-2-yl)-1H-indole-2-carboxamide]",> 1 µM

# Same assay, conditions: Severe acute respiratory syndrome coronavirus 2, HeLa-ACE2, 24 h, HeLa-ACE2 cells, SARS-CoV-2 infection, 24 h; class symbols; read-out: EC50, uM (Hela)
row,SMILES,EC50
1,"O=C(NC1CC(F)(F)C1)C(=O)N[C@@H](CC1CC1)C(=O)N[C@@H](C[C@@H]1CCNC1=O)C(=O)COC(F)(F)F [Compound 176, N1-((S)-3-cyclopropyl-1-oxo-1-(((S)-3-oxo-1-((S)-2-oxopyrrolidin-3-yl)-4-(trifluoromethoxy)butan-2-yl)amino)propan-2-yl)-N2-(3,3-difluorocyclobutyl)-oxalamide]",< 0.05 µM
2,"CC(C)C[C@H](NC(=O)c1cc2cnccc2[nH]1)C(=O)N[C@@H](C[C@@H]1CCNC1=O)C(=O)COC(F)(F)F [Compound 200, N-((S)-4-methyl-1-oxo-1-(((S)-3-oxo-1-((S)-2-oxopyrrolidin-3-yl)-4-(trifluoromethoxy)butan-2-yl)amino)pentan-2-yl)-1H-pyrrolo[3,2-c]pyridine-2-carboxamide]",0.2 to 0.5 µM
3,"O=C1NCC[C@H]1C[C@H](NC(=O)[C@@H]1CC2(CC2)CN1C(=O)C12CC(C(F)F)(CO1)C2)C(=O)COC(F)(F)F [Compound 320, (S)-5-(4-(difluoromethyl)-2-oxabicyclo[2.1.1]-hexane-1-carbonyl)-N-((S)-3-oxo-1-((S)-2-oxopyrrolidin-3-yl)-4-(trifluoromethoxy)butan-2-yl)-5-azaspiro[2.4]-heptane-6-carboxamide]",0.2 to 0.5 µM
4,"CC(C)(C)NC(=O)O[C@@H](C(=O)N1CC2(CC2)C[C@H]1C(=O)N[C@@H](C[C@@H]1CCNC1=O)C(=O)COC(F)(F)F)C(C)(C)C [Compound 327, (R)-3,3-dimethyl-1-oxo-1-((S)-6-(((S)-3-oxo-1-((S)-2-oxopyrrolidin-3-yl)-4-(trifluoromethoxy)butan-2-yl)carbamoyl)-5-azaspiro[2.4]heptan-5-yl)butan-2-yl tert-butylcarbamate]",0.5 to 1 µM
5,"O=C(N[C@@H](CC1CCCCC1)C(=O)N[C@@H](C[C@@H]1CCNC1=O)C(=O)COc1c(F)c(F)cc(F)c1F)c1cc(-c2ccccc2F)on1 [Compound 110, N-((S)-3-cyclohexyl-1-oxo-1-(((S)-3-oxo-l-((S)-2-oxopyrrolidin-3-yl)-4-(2,3,5,6-tetrafluorophenoxy)butan-2-yl)amino)propan-2-yl)-5-(2-fluorophenyl)isoxazole-3-carboxamide]",0.2 to 0.5 µM
6,"COc1cccc(NC(=O)C(=O)N[C@@H](CC(C)C)C(=O)N[C@@H](C[C@@H]2CCNC2=O)C(=O)COC(F)(F)F)c1 [Compound 188, N1-(3-methoxyphenyl)-N2-((S)-4-methyl-1-oxo-1-(((S)-3-oxo-1-((S)-2-oxopyrrolidin-3-yl)-4-(trifluoromethoxy)butan-2-yl)amino)pentan-2-yl)oxalamide]",< 0.05 µM
7,"COc1ccc(F)cc1NC(=O)C(=O)N[C@@H](CC(C)C)C(=O)N[C@@H](C[C@@H]1CCNC1=O)C(=O)COc1c(F)c(F)cc(F)c1F [Compound 79, N1-(5-fluoro-2-methoxyphenyl)-N2-((S)-4-methyl-1-oxo-1-(((S)-3-oxo-1-((S)-2-oxopyrrolidin-3-yl)-4-(2,3,5,6-tetrafluorophenoxy)butan-2-yl)amino)pentan-2-yl)oxalamide]",0.05 to 0.2 µM
8,"CC12COC(C(=O)N3C[C@@H]4CCC[C@@H]4[C@H]3C(=O)N[C@@H](C[C@@H]3CCNC3=O)C(=O)COC(F)(F)F)(C1)C2 [Compound 312, (1S,3aR,6aS)-2-(4-methyl-2-oxabicyclo-[2.1.1]hexane-1-carbonyl)-N-((S)-3-oxo-1-((S)-2-oxopyrrolidin-3-yl)-4-(trifluoromethoxy)butan-2-yl)octahydrocyclo-penta[c]pyrrole-1-carboxamide]",0.05 to 0.2 µM
9,"CC[C@@H](OC(F)(F)F)C(=O)N1C[C@H]2[C@@H]([C@H]1C(=O)N[C@@H](C[C@@H]1CCNC1=O)C(=O)COC(F)(F)F)C2(C)C [Compound 335, (1R,2S,5S)-6,6-dimethyl-N-((S)-3-oxo-1-((S)-2-oxopyrrolidin-3-yl)-4-(trifluoromethoxy)butan-2-yl)-3-((R)-2-(trifluoromethoxy)butanoyl)-3-azabicyclo[3.1.0]-hexane-2-carboxamide]",< 0.05 µM
10,"CC(C)C[C@H](NC(=O)c1cc2ccncc2[nH]1)C(=O)N[C@@H](C[C@@H]1CCNC1=O)C(=O)COC(F)(F)F [Compound 187, N-((S)-4-methyl-1-oxo-1-(((S)-3-oxo-1-((S)-2-oxopyrrolidin-3-yl)-4-(trifluoromethoxy)butan-2-yl)amino)pentan-2-yl)-1H-pyrrolo[2,3-c]pyridine-2-carboxamide]",0.05 to 0.2 µM
11,"CC(C)C[C@H](NC(=O)C(=O)NC1(C)CC1)C(=O)N[C@@H](C[C@@H]1CCCNC1=O)C(=O)COC(F)(F)F [Compound 245, N1-((S)-4-methyl-1-oxo-1-(((S)-3-oxo-1-((S)-2-oxopiperidin-3-yl)-4-(trifluoromethoxy)butan-2-yl)amino)pentan-2-yl)-N2-(1-methylcyclo-propyl)oxalamide]",< 0.05 µM
12,"Cc1cc(F)ccc1NC(=O)C(=O)N[C@@H](CC(C)C)C(=O)N[C@@H](C[C@@H]1CCNC1=O)C(=O)COc1c(F)c(F)cc(F)c1F [Compound 74, N1-(4-fluoro-2-methylphenyl)-N2-((S)-4-methyl-1-oxo-1-(((S)-3-oxo-1-((S)-2-oxopyrrolidin-3-yl)-4-(2,3,5,6-tetrafluorophenoxy)butan-2-yl)amino)pentan-2-yl)oxalamide]",0.2 to 0.5 µM
13,"CC(C)C[C@H](NC(=O)C(=O)Nc1cc(F)c(Br)c(F)c1)C(=O)N[C@@H](C[C@@H]1CCNC1=O)C(=O)COc1c(F)c(F)cc(F)c1F [Compound 87, N1-(4-bromo-3,5-difluorophenyl)-N2-((S)-4-methyl-1-oxo-1-(((S)-3-oxo-1-((S)-2-oxopyrrolidin-3-yl)-4-(2,3,5,6-tetrafluorophenoxy)butan-2-yl)amino)pentan-2-yl)oxalamide]",0.05 to 0.2 µM

# Same assay, conditions: Severe acute respiratory syndrome coronavirus 2, HeLa-ACE2, 24 h, HeLa-ACE2 cells, SARS-CoV-2 infection, 24 h; given as bound; read-out: EC50, uM (Hela)
row,SMILES,EC50
1,"CC1(NC(=O)C(=O)N2C[C@@H]3CCC[C@@H]3[C@H]2C(=O)N[C@H](C[C@@H]2CCNC2=O)C(=O)COC(F)(F)F)CC1 [Compound 495, (1S,3aR,6aS)-2-(2-((1-methylcyclopropyl)-amino)-2-oxoacetyl)-N-((R)-3-oxo-1-((S)-2-oxopyrrolidin-3-yl)-4-(trifluoromethoxy)butan-2-yl)octahydrocyclo-penta[c]pyrrole-1-carboxamide]",> 1 µM

# Same assay, conditions: Severe acute respiratory syndrome coronavirus 2, HeLa-ACE2, 24 h, HeLa-ACE2 cells, SARS-CoV-2 infection, 24 h; read-out: EC50, uM (Hela)
row,SMILES,EC50
1,"CCCCC(=O)N1CC2(CC2)C[C@H]1C(=O)N[C@@H](C[C@@H]1CCNC1=O)C(=O)COC(F)(F)F [Compound 618, (S)-N-((S)-3-oxo-1-((S)-2-oxopyrrolidin-3-yl)-4-(trifluoromethoxy)butan-2-yl)-5-pentanoyl-5-azaspiro[2.4]heptane-6-carboxamide]",0.05 to 0.2 µM
2,"COc1ccc(/C=C/C[C@@H](O)C(=O)N2CC3(CC3)C[C@H]2C(=O)N[C@@H](C[C@@H]2CCNC2=O)C(=O)COC(F)(F)F)cc1 [Compound 666, (S)-5-((R,E)-2-hydroxy-5-(4-methoxyphenyl)pent-4-enoyl)-N-((S)-3-oxo-1-((S)-2-oxopyrrolidin-3-yl)-4-(trifluoromethoxy)butan-2-yl)-5-azaspiro[2.4]heptane-6-carboxamide]",0.05 to 0.2 µM
3,"O=C1NCC[C@H]1C[C@H](NC(=O)[C@@H]1CC2(CC2)CN1C(=O)C(O)c1ccc(F)cc1F)C(=O)COC(F)(F)F (stereo partly drawn) [Compound 402, (6S)-5-(2-(2,4-difluorophenyl)-2-hydroxyacetyl)-N-((S)-3-oxo-1-((S)-2-oxopyrrolidin-3-yl)-4-(trifluoromethoxy)butan-2-yl)-5-azaspiro[2.4]heptane-6-carboxamide]",< 0.05 µM
4,"C=CCC(=O)N1CC2(CC2)C[C@H]1C(=O)N[C@@H](C[C@@H]1CCNC1=O)C(=O)COC(F)(F)F [Compound 689, (S)-5-(but-3-enoyl)-N-((S)-3-oxo-1-((S)-2-oxopyrrolidin-3-yl)-4-(trifluoromethoxy)butan-2-yl)-5-azaspiro[2.4]heptane-6-carboxamide]",0.05 to 0.2 µM
5,"O=C1NCC[C@H]1C[C@H](NC(=O)[C@@H]1CC2(CC2)CN1C(=O)C(O)c1ccccn1)C(=O)COC(F)(F)F (stereo partly drawn) [Compound 418, (6S)-5-(2-hydroxy-2-(pyridin-2-yl)acetyl)-N-((S)-3-oxo-1-((S)-2-oxopyrrolidin-3-yl)-4-(trifluoromethoxy)butan-2-yl)-5-azaspiro[2.4]heptane-6-carboxamide]",0.05 to 0.2 µM
6,"CC(C)[C@H](O)CC(=O)N1CC2(CC2)C[C@H]1C(=O)N[C@@H](C[C@@H]1CCNC1=O)C(=O)COC(F)(F)F [Compound 431, (S)-5-((R)-3-hydroxy-4-methylpentanoyl)-N-((S)-3-oxo-1-((S)-2-oxopyrrolidin-3-yl)-4-(trifluoromethoxy)butan-2-yl)-5-azaspiro[2.4]heptane-6-carboxamide]",0.05 to 0.2 µM

# Same assay, conditions: Severe acute respiratory syndrome coronavirus 2, HeLa-ACE2, 24 h; read-out: EC50, uM (Hela)
row,SMILES,EC50
1,"CC(C)C[C@H](NC(=O)C(=O)Nc1ccccc1F)C(=O)N[C@@H](C[C@@H]1CCNC1=O)C(=O)COP(=O)(c1ccccc1)c1ccccc1 [Compound 125, (S)-3-((S)-2-(2-((2-fluorophenyl)amino)-2-oxoacetamido)-4-methylpentanamido)-2-oxo-4-((S)-2-oxopyrrolidin-3-yl)butyl diphenylphosphinate]",< 0.05 µM
